Reference: patent publication US10626144B2, “Peptide derivatives and uses thereof” (Nosopharm, priority 2014, dated 2020)
Like-named read-outs stand apart in the source and are kept apart here. Numbered stars: 1 amine (or outer) side, 2 acyl side, 3 side chain; on linkers, the order of the positions; unused ones are H or OH. Square brackets hold non-standard residues; d marks the D form. Peptide text beside a SMILES is read from it. * marks the point of attachment. Phe(4-tBu) = CC(C)(C)c1ccc(C[C@H](N)C(=O)O)cc1; Phe(4-Cl) = N[C@@H](Cc1ccc(Cl)cc1)C(=O)O; Dab(3S-OH) = NC[C@H](O)[C@H](N)C(=O)O; ΔZArg = N=C(N)NCC/C=C(\N)C(=O)O; X2 = CC=C(N[*:1])C(=O)[*:2]; dOrn = NCCC[C@@H](N)C(=O)O; Abu = CC[C@H](N)C(=O)O; NH(CH2)4NH2 = NCCCCN*

Tests used:
[1] = test system: Pseudomonas aeruginosa ATCC 27853; assay: MIC, broth microdilution (CLSI), reference strain; details: CAMHB
[2] = test system: Escherichia coli ATCC 25922; assay: MIC, broth microdilution (CLSI), reference strain; details: CAMHB
[3] = test system: Acinetobacter baumannii ATCC 19606; assay: MIC, broth microdilution (CLSI), reference strain; details: CAMHB
[4] = molecular target: N-type calcium channels (Cav2.2) (Rattus norvegicus (Rat), UniProt Q02294); assay: biochemical; assay type: binding
[5] = test system: Staphylococcus aureus ATCC 13709; assay: MIC, broth microdilution (CLSI), reference strain; details: CAMHB
[6] = value in brackets, rat cerebral cortex, [125I]ω-conotoxin GVIA 0.001 nM, read-out: IC50 Cav2.2
[7] = class symbol, rat cerebral cortex, [125I]ω-conotoxin GVIA 0.001 nM, 30 minutes at room temperature, read-out: IC50 Cav2.2

Row | Structure (SMILES) | Pa: MIC Pseudomonas aeruginosa ATCC 27853 [1] | Ec: MIC Escherichia coli ATCC 25922 [2] | Ab: MIC Acinetobacter baumannii ATCC 19606 [3] | IC50 [4] [nM] | IC50 [4, 6] [nM] | Sa: MIC Staphylococcus aureus ATCC 13709 [5] | IC50 [4, 7] [nM]
1 | C[C@H](NC(=O)[C@@H](NC(=O)[C@@H](N)CCCCN)[C@@H](O)CN)C(=O)NCC(=O)N[C@H](CCCN)C(=O)N1CCC[C@H]1C(=O)N[C@@H](CC(N)=O)C(=O)N[C@@H](CCCCN)C(=O)N/C(=C\CCNC(=N)N)C(=O)O [24.112] (H-K[Dab(3S-OH)]AG[dOrn]PNK[ΔZArg]-OH) | − (>32 μg/mL) | − (>32 μg/mL) | − (>32 μg/mL) | > 300 | 790 | + (≤32 μg/mL) | 
2 | C[C@H](NC(=O)[C@@H](NC(=O)[C@@H](N)CCCCN)[C@@H](O)CN)C(=O)NCC(=O)N[C@H](CCCN)C(=O)N1CCC[C@H]1C(=O)N[C@@H](Cc1ccc(C(C)(C)C)cc1)C(=O)N[C@@H](CCCCN)C(=O)N/C(=C\CCNC(=N)N)C(=O)O [24.93] (H-K[Dab(3S-OH)]AG[dOrn]P[Phe(4-tBu)]K[ΔZArg]-OH) | − (>32 μg/mL) | ++ (≤8 μg/mL) | − (>32 μg/mL) |  |  | ++ (≤8 μg/mL) | > 300
3 | CC=C(NC(=O)[C@H](CCCCN)NC(=O)[C@H](Cc1cnc[nH]1)NC(=O)[C@@H]1CCCN1C(=O)[C@@H](CCCN)NC(=O)CNC(=O)[C@@H](NC(=O)[C@@H](NC(=O)[C@@H](N)CCCCN)[C@@H](O)CN)[C@@H](O)CN)C(=O)N[C@@H](CCCCN)C(=O)NCCCCN [22.15] (H-K[Dab(3S-OH)][Dab(3S-OH)]G[dOrn]PHK[X2]K-{NH(CH2)4NH2}) | − (>32 μg/mL) | + (≤32 μg/mL) | − (>32 μg/mL) | < 30 | 4 | ++ (≤8 μg/mL) | 
4 | CC[C@H](NC(=O)[C@@H](NC(=O)[C@@H](N)CCCCN)[C@@H](O)CN)C(=O)NCC(=O)N[C@H](CCCN)C(=O)N1CCC[C@H]1C(=O)N[C@@H](Cc1cnc[nH]1)C(=O)N[C@@H](CCCCN)C(=O)N/C(=C\CCNC(=N)N)C(=O)N[C@@H](CCCCN)C(=O)NCCCCN [28.1] (H-K[Dab(3S-OH)][Abu]G[dOrn]PHK[ΔZArg]K-{NH(CH2)4NH2}) | − (>32 μg/mL) | ++ (≤8 μg/mL) | − (>32 μg/mL) |  |  | ++ (≤8 μg/mL) | < 30
5 | CC[C@H](C)[C@H](NC(=O)[C@@H](NC(=O)[C@@H](N)CCCCN)[C@@H](O)CN)C(=O)NCC(=O)N[C@H](CCCN)C(=O)N1CCC[C@H]1C(=O)N[C@@H](Cc1cnc[nH]1)C(=O)N[C@@H](CCCCN)C(=O)N/C(=C\CCNC(=N)N)C(=O)N[C@@H](CCCCN)C(=O)NCCCCN [27.1] (H-K[Dab(3S-OH)]IG[dOrn]PHK[ΔZArg]K-{NH(CH2)4NH2}) | − (>32 μg/mL) | ++ (≤8 μg/mL) | − (>32 μg/mL) |  |  | ++ (≤8 μg/mL) | < 30
6 | CC[C@H](C)[C@H](NC(=O)[C@@H](NC(=O)[C@@H](N)CCCCN)[C@@H](O)CN)C(=O)NCC(=O)N[C@H](CCCN)C(=O)N1CCC[C@H]1C(=O)N[C@@H](Cc1cnc[nH]1)C(=O)N[C@@H](CCCCN)C(=O)N/C(=C\CCNC(=N)N)C(=O)O [27.2] (H-K[Dab(3S-OH)]IG[dOrn]PHK[ΔZArg]-OH) | − (>32 μg/mL) | − (>32 μg/mL) | − (>32 μg/mL) |  |  | + (≤32 μg/mL) | > 300
7 | C[C@H](NC(=O)[C@@H](NC(=O)[C@@H](N)CCCCN)[C@@H](O)CN)C(=O)NCC(=O)N[C@H](CCCN)C(=O)N1CCC[C@H]1C(=O)N[C@@H](Cc1ccc(Cl)cc1)C(=O)N[C@@H](CCCCN)C(=O)N/C(=C\CCNC(=N)N)C(=O)O [24.97] (H-K[Dab(3S-OH)]AG[dOrn]P[Phe(4-Cl)]K[ΔZArg]-OH) | − (>32 μg/mL) | ++ (≤8 μg/mL) | − (>32 μg/mL) |  |  | ++ (≤8 μg/mL) | > 300
